Values joined by “and” are separate entries in the source; they are usually repeats but may differ in a detail not shown here. Equal entries are not always repeated.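 Grown in 96-well plates, cells were treated for 48 hours with each compound at five concentrations. Insufficient inhibition: endpoint recorded as highest concentration tested. GI50 is the concentration that inhibits growth by half.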 Active and inactive are the calls of the source. Rule as the data show it: active = GI50 up to about 1.1 µM and inactive = higher. Starred links: 1 amine or outer side, 2 acyl side, 3 side chain; linkers in the order of their positions; H or OH if unused. Positions of bridges follow the written chain, without caps; N, C: chain ends. Non-standard residues stand in square brackets, D forms with d. Residues, ends and D or L forms follow the SMILES beside them. Chains are numbered I, II in the order given. Actinocin(9to1) = Cc1c2oc3c(C)ccc(C(=O)[*:1])c3nc-2c(C(=O)[*:2])c(N)c1=O; NMeY = CN[CH](Cc1ccc(O)cc1)C(=O)O; Sar = CNCC(=O)O
Experiments:
Experiment in all cases: NCI anticancer screen, dose series, 48 h
HT-29 = system: HT-29
MOLT-4 = system: MOLT-4
NCI/ADR-RES = system: NCI/ADR-RES
SF-295 = system: SF-295
UO-31 = system: UO-31
NCI-H23 = system: NCI-H23
KM12 = system: KM12
MDA-MB-231 = system: MDA-MB-231
OVCAR-5 = system: OVCAR-5
HOP-62 = system: HOP-62
LOX IMVI = system: LOX IMVI
CCRF-CEM = system: CCRF-CEM
UACC-257 = system: UACC-257
SK-MEL-28 = system: SK-MEL-28
DU-145 = system: DU-145
SK-MEL-5 = system: SK-MEL-5
MDA-MB-435 = system: MDA-MB-435
SNB-19 = system: SNB-19
MDA-N = system: MDA-N
HCT-15 = system: HCT-15
OVCAR-8 = system: OVCAR-8
OVCAR-3 = system: OVCAR-3
SR = system: SR
COLO 205 = system: COLO 205
HL-60 = system: HL-60
HCC 2998 = system: HCC 2998
A549 = system: A549
CAKI-1 = system: CAKI-1
M14 = system: M14
U-251 = system: U-251
HOP-92 = system: HOP-92
SK-MEL-2 = system: SK-MEL-2
ACHN = system: ACHN
HCT-116 = system: HCT-116
MCF7 = system: MCF7
EKVX = system: EKVX
TK-10 = system: TK-10
Malme-3M = system: Malme-3M
SN12C = system: SN12C
PC-3 = system: PC-3
786-0 = system: 786-0
BT-549 = system: BT-549
OVCAR-4 = system: OVCAR-4
K562 = system: K562
NCI-H460 = system: NCI-H460
RPMI-8226 = system: RPMI-8226
SF-539 = system: SF-539
RXF 393 = system: RXF 393
NCI-H522 = system: NCI-H522
SW-620 = system: SW-620
SF-268 = system: SF-268
SNB-75 = system: SNB-75
UACC-62 = system: UACC-62
T47D = system: T47D
A498 = system: A498
NCI-H226 = system: NCI-H226
Hs-578T = system: Hs-578T
IGROV-1 = system: IGROV-1
SK-OV-3 = system: SK-OV-3

O=S1(=O)OCCOS(=O)(=O)C1Cc1nc2ccccc2[nH]1
GI50 (HT-29): 51.2 µM (inactive)
GI50 (MOLT-4): 24.2 µM (inactive)
GI50 (NCI/ADR-RES): 30.3 µM (inactive)
GI50 (SF-295): 24.7 µM (inactive)
GI50 (UO-31): 75.7 µM (inactive)
GI50 (NCI-H23): 41 µM (inactive)
GI50 (KM12): 68.2 µM (inactive)
GI50 (MDA-MB-231): 43 µM (inactive)
GI50 (OVCAR-5): > 100 µM (inactive)
GI50 (HOP-62): 26.8 µM (inactive)
GI50 (LOX IMVI): 14.5 µM (inactive)
GI50 (CCRF-CEM): 33 µM (inactive)
GI50 (UACC-257): 29.2 µM (inactive)
GI50 (SK-MEL-28): 97.1 µM (inactive)
GI50 (DU-145): > 100 µM (inactive)
GI50 (SK-MEL-5): 34.7 µM (inactive)
GI50 (MDA-MB-435): 51.2 µM (inactive)
GI50 (SNB-19): 37.2 µM (inactive)
GI50 (MDA-N): 22.3 µM (inactive)
GI50 (HCT-15): 26 µM
GI50 (OVCAR-8): 55.6 µM (inactive)
GI50 (OVCAR-3): 45.8 µM (inactive)
GI50 (SR): 28.6 µM (inactive)
GI50 (COLO 205): 83.2 µM (inactive)
GI50 (HL-60): 22.5 µM (inactive)
GI50 (HCC 2998): 54.7 µM (inactive)
GI50 (A549): 44.6 µM (inactive)
GI50 (CAKI-1): 27 µM (inactive)
GI50 (M14): 44.8 µM (inactive)
GI50 (U-251): 38.6 µM (inactive)
GI50 (HOP-92): 0.114 µM (active)
GI50 (SK-MEL-2): 72.3 µM (inactive)
GI50 (ACHN): 32.1 µM (inactive)
GI50 (HCT-116): 23 µM (inactive)
GI50 (MCF7): 33.7 µM (inactive)
GI50 (EKVX): > 100 µM (inactive)
GI50 (TK-10): > 100 µM (inactive)
GI50 (Malme-3M): > 100 µM (inactive)
GI50 (SN12C): 35.2 µM (inactive)
GI50 (PC-3): 19.6 µM (inactive)
GI50 (786-0): 39.7 µM (inactive)
GI50 (BT-549): > 10 µM (inactive)
GI50 (OVCAR-4): 44.2 µM (inactive)
GI50 (K562): 34.5 µM (inactive)
GI50 (NCI-H460): 28.2 µM (inactive)
GI50 (RPMI-8226): 34.3 µM (inactive)

CCOC(=O)Nc1ccc(C)c(NC(=O)OCC)c1
GI50 (HT-29): > 100 µM (inactive)
GI50 (MOLT-4): > 100 µM (inactive)
GI50 (NCI/ADR-RES): > 100 µM (inactive)
GI50 (SF-295): > 100 µM (inactive)
GI50 (UO-31): > 100 µM (inactive)
GI50 (SF-539): > 100 µM (inactive)
GI50 (RXF 393): > 100 µM (inactive)
GI50 (NCI-H522): > 100 µM (inactive)
GI50 (NCI-H23): > 100 µM (inactive)
GI50 (SW-620): > 100 µM (inactive)
GI50 (KM12): > 100 µM (inactive)
GI50 (MDA-MB-231): > 100 µM (inactive)
GI50 (OVCAR-5): > 100 µM (inactive)
GI50 (HOP-62): > 100 µM (inactive)
GI50 (SF-268): > 100 µM (inactive)
GI50 (LOX IMVI): > 100 µM (inactive)
GI50 (CCRF-CEM): > 100 µM (inactive)
GI50 (UACC-257): > 100 µM (inactive)
GI50 (SK-MEL-28): > 100 µM (inactive)
GI50 (DU-145): > 100 µM (inactive)
GI50 (SK-MEL-5): > 100 µM (inactive)
GI50 (SNB-75): > 100 µM (inactive)
GI50 (MDA-MB-435): > 100 µM (inactive)
GI50 (SNB-19): > 100 µM (inactive)
GI50 (MDA-N): > 100 µM (inactive)
GI50 (HCT-15): > 100 µM
GI50 (OVCAR-8): > 100 µM (inactive)
GI50 (OVCAR-3): > 100 µM (inactive)
GI50 (SR): > 100 µM (inactive)
GI50 (COLO 205): > 100 µM (inactive)
GI50 (HL-60): > 100 µM (inactive)
GI50 (HCC 2998): 56.2 µM (inactive)
GI50 (A549): > 100 µM (inactive)
GI50 (CAKI-1): > 100 µM (inactive)
GI50 (M14): > 100 µM (inactive)
GI50 (UACC-62): > 100 µM (inactive)
GI50 (U-251): > 100 µM (inactive)
GI50 (HOP-92): > 100 µM (inactive)
GI50 (SK-MEL-2): > 100 µM (inactive)
GI50 (ACHN): > 100 µM (inactive)
GI50 (HCT-116): > 100 µM (inactive)
GI50 (T47D): > 100 µM (inactive)
GI50 (MCF7): > 100 µM (inactive)
GI50 (EKVX): 6.58 µM (inactive)
GI50 (A498): > 100 µM (inactive)
GI50 (TK-10): > 100 µM (inactive)
GI50 (NCI-H226): > 100 µM (inactive)
GI50 (Malme-3M): > 100 µM (inactive)
GI50 (Hs-578T): > 100 µM (inactive)
GI50 (SN12C): > 100 µM (inactive)
GI50 (PC-3): > 100 µM (inactive)
GI50 (IGROV-1): 55.6 µM (inactive)
GI50 (786-0): > 100 µM (inactive)
GI50 (SK-OV-3): > 100 µM (inactive)
GI50 (K562): > 100 µM (inactive)
GI50 (NCI-H460): > 100 µM (inactive)
GI50 (RPMI-8226): > 100 µM (inactive)

Cc1c2oc3c(C)ccc(C(=O)NC4C(=O)NC(C(C)C)C(=O)N5CCCC5C(=O)N(C)CC(=O)N(C)C(Cc5ccc(O)cc5)C(=O)OC4C)c3nc-2c(C(=O)NC2C(=O)NC(C(C)C)C(=O)N3CCCC3C(=O)N(C)CC(=O)N(C)C(Cc3ccc(O)cc3)C(=O)OC2C)c(N)c1=O (centres undefined) (I: TVP[Sar][NMeY] / II: TVP[Sar][NMeY]; ester I:1-I:C, II:1-II:C; linker I:N-II:N via Actinocin(9to1); configuration not given here)
GI50 (SF-539): 12.4 nM (active) and 15.3 nM (active)
GI50 (NCI-H522): 2.25 nM (active) and 4.33 nM (active)
GI50 (KM12): 13.2 nM (active) and 17.1 nM (active)
GI50 (SF-268): 11 nM (active) and 17.7 nM (active)
GI50 (HL-60): 4.3 nM (active) and 5.39 nM (active)
GI50 (SK-MEL-2): 9.06 nM (active) and 13.1 nM (active)
GI50 (MCF7): 1.89 nM (active) and 2.16 nM (active)
GI50 (NCI-H226): 20.6 nM (active) and 39.3 nM (active)
GI50 (Hs-578T): 3.71 nM (active) and 4.25 nM (active)
GI50 (SN12C): 5.69 nM (active) and 11 nM (active)
GI50 (IGROV-1): 6.05 nM (active) and 7.46 nM (active)
GI50 (BT-549): 15 nM (active) and 17.3 nM (active)
GI50 (OVCAR-4): 43 nM (active) and 42.6 nM (active)
GI50 (RPMI-8226): 8.59 nM (active) and 7.03 nM (active)

COC(=O)c1ccccc1CC(Cc1ccc2c(c1)CCC2)C(=O)OC (centres undefined)
GI50 (HT-29): 50.6 µM (inactive)
GI50 (MOLT-4): 31.8 µM (inactive)
GI50 (NCI/ADR-RES): > 100 µM (inactive)
GI50 (SF-295): > 100 µM (inactive)
GI50 (UO-31): > 100 µM (inactive)
GI50 (SF-539): > 100 µM (inactive)
GI50 (RXF 393): > 100 µM (inactive)
GI50 (NCI-H522): 66.1 µM (inactive)
GI50 (NCI-H23): > 100 µM (inactive)
GI50 (SW-620): > 100 µM (inactive)
GI50 (KM12): 33.6 µM (inactive)
GI50 (MDA-MB-231): > 100 µM (inactive)
GI50 (OVCAR-5): > 100 µM (inactive)
GI50 (HOP-62): > 100 µM (inactive)
GI50 (SF-268): > 100 µM (inactive)
GI50 (LOX IMVI): > 100 µM (inactive)
GI50 (CCRF-CEM): 47.3 µM (inactive)
GI50 (UACC-257): 34.6 µM (inactive)
GI50 (SK-MEL-28): > 100 µM (inactive)
GI50 (DU-145): > 100 µM (inactive)
GI50 (SK-MEL-5): 32.4 µM (inactive)
GI50 (SNB-75): 98.4 µM (inactive)
GI50 (MDA-MB-435): 66.1 µM (inactive)
GI50 (SNB-19): > 100 µM (inactive)
GI50 (MDA-N): 62.4 µM (inactive)
GI50 (HCT-15): > 100 µM
GI50 (OVCAR-8): > 100 µM (inactive)
GI50 (OVCAR-3): 70 µM (inactive)
GI50 (SR): 36.9 µM (inactive)
GI50 (COLO 205): > 100 µM (inactive)
GI50 (HL-60): 45.9 µM (inactive)
GI50 (HCC 2998): > 100 µM (inactive)
GI50 (A549): > 100 µM (inactive)
GI50 (CAKI-1): > 100 µM (inactive)
GI50 (M14): > 100 µM (inactive)
GI50 (U-251): > 100 µM (inactive)
GI50 (HOP-92): > 100 µM (inactive)
GI50 (SK-MEL-2): > 100 µM (inactive)
GI50 (ACHN): > 100 µM (inactive)
GI50 (HCT-116): 49.1 µM (inactive)
GI50 (T47D): > 100 µM (inactive)
GI50 (MCF7): > 100 µM (inactive)
GI50 (EKVX): > 100 µM (inactive)
GI50 (A498): > 100 µM (inactive)
GI50 (TK-10): > 100 µM (inactive)
GI50 (NCI-H226): 57.5 µM (inactive)
GI50 (Malme-3M): 33.3 µM (inactive)
GI50 (Hs-578T): > 100 µM (inactive)
GI50 (SN12C): > 100 µM (inactive)
GI50 (PC-3): 93.3 µM (inactive)
GI50 (IGROV-1): > 100 µM (inactive)
GI50 (786-0): > 100 µM (inactive)
GI50 (OVCAR-4): > 100 µM (inactive)
GI50 (SK-OV-3): > 100 µM (inactive)
GI50 (K562): 95.1 µM (inactive)
GI50 (NCI-H460): > 100 µM (inactive)
GI50 (RPMI-8226): > 100 µM (inactive)
